# Test results taken from ChEMBL document CHEMBL6182945, “MMAE-Based Peptide-Drug Conjugates Targeting GPC3 for Precision Chemoradiotherapy in Hepatocellular Carcinoma” (J Med Chem, 2025).
# Active and inactive are the calls of the source. The calls are words filed in the database; no cut-off is given here.
# Assays:
# [1] = tested on: Huh-7; assay: Cell cycle arrest in human Huh-7 cells assessed as accumulation of cells at S phase at 50 nM measured after 18 hrs incubation by PI staining based flow cytometry (reference value: 37.30%); assay type: functional
# [2] = tested on: Huh-7; assay: Cell cycle arrest in human Huh-7 cells assessed as accumulation of cells at G2/M phase at 100 nM measured after 24 hrs incubation by PI staining based flow cytometry (reference value: 18.88%); assay type: functional
# [3] = tested on: LX-2; assay: Cell cycle arrest in human LX-2 cells assessed as accumulation of cells at S phase at 10 nM measured after 24 hrs incubation by PI staining based flow cytometry (reference value: 36.93%); assay type: functional
# [4] = tested on: Hep 3B2; assay: Cell cycle arrest in human Hep3B cells assessed as accumulation of cells at S phase at 10 nM measured after 24 hrs incubation by PI staining based flow cytometry (reference value: 28.91%); assay type: functional
# [5] = tested on: LX-2; assay: Cell cycle arrest in human LX-2 cells assessed as accumulation of cells at G0/G1 phase at 100 nM measured after 24 hrs incubation by PI staining based flow cytometry (reference value: 48.42%); assay type: functional
# [6] = tested on: Huh-7; assay: Cell cycle arrest in human Huh-7 cells assessed as accumulation of cells at G0/G1 phase at 10 nM measured after 24 hrs incubation by PI staining based flow cytometry (reference value: 47.97%); assay type: functional
# [7] = tested on: Huh-7; assay: Cell cycle arrest in human Huh-7 cells assessed as accumulation of cells at phase G2/M at 50 nM measured after 30 hrs incubation by PI staining based flow cytometry (reference value: 18.42%); assay type: functional
# [8] = tested on: Huh-7; assay: Cell cycle arrest in human Huh-7 cells assessed as accumulation of cells at S phase at 50 nM measured after 24 hrs incubation by PI staining based flow cytometry (reference value: 37.30%); assay type: functional
# [9] = tested on: Hep 3B2; assay: Cell cycle arrest in human Hep3B cells assessed as accumulation of cells at G2/M phase at 10 nM measured after 24 hrs incubation by PI staining based flow cytometry (reference value: 23%); assay type: functional
# [10] = tested on: Huh-7; assay: Cell cycle arrest in human Huh-7 cells assessed as accumulation of cells at G0/G1 phase at 30 nM measured after 24 hrs incubation by PI staining based flow cytometry (reference value: 47.97%); assay type: functional
# [11] = tested on: Huh-7; assay: In vivo antitumor activity against human Huh-7 cells xenografted in female BALB/c mouse assessed as reduction in tumor volume at 1 mg/kg, iv total 4 doses measured on day 17 relative to control; assay type: functional; set-up: scale not given: the % may be the effect or the level left; conditions: time 17 day
# [12] = tested on: Huh-7; assay: Cell cycle arrest in human Huh-7 cells assessed as accumulation of cells at S phase at 10 nM measured after 24 hrs incubation by PI staining based flow cytometry (reference value: 33.15%); assay type: functional
# [13] = tested on: Huh-7; assay: Induction of DNA damage in human irradiated Huh-7 cells assessed as increase in DNA double break by measuring number of gamma-H2AX foci formation at 100 nM measured after 24 hrs by immunostaining assay (reference value: 6 +/- 2 foci); assay type: functional
# [14] = tested on: Hep 3B2; assay: Cell cycle arrest in human Hep3B cells assessed as accumulation of cells at G2/M phase at 30 nM measured after 24 hrs incubation by PI staining based flow cytometry (reference value: 23%); assay type: functional
# [15] = tested on: Huh-7; assay: Cell cycle arrest in human Huh-7 cells assessed as accumulation of cells at S phase at 50 nM measured after 30 hrs incubation by PI staining based flow cytometry (reference value: 37.30%); assay type: functional
# [16] = target: Serine/threonine-protein kinase Chk2 (Homo sapiens) (UniProt O96017); assay: Induction of CHK2 phosphorylation in human irradiated Huh-7 cells at 100 nM measured after 24 hrs by Western blot analysis; assay type: cell-based
# [17] = tested on: LX-2; assay: Cell cycle arrest in human LX-2 cells assessed as accumulation of cells at G2/M phase at 30 nM measured after 24 hrs incubation by PI staining based flow cytometry (reference value: 14.65%); assay type: functional
# [18] = tested on: Huh-7; assay: Decrease in CDK1 expression in human irradiated Huh-7 cells at 100 nM measured after 24 hrs by Western blot analysis relative to irradiation alone; assay type: functional, cell-based
# Sequence of Serine/threonine-protein kinase Chk2 (Homo sapiens) (O96017 whole entry): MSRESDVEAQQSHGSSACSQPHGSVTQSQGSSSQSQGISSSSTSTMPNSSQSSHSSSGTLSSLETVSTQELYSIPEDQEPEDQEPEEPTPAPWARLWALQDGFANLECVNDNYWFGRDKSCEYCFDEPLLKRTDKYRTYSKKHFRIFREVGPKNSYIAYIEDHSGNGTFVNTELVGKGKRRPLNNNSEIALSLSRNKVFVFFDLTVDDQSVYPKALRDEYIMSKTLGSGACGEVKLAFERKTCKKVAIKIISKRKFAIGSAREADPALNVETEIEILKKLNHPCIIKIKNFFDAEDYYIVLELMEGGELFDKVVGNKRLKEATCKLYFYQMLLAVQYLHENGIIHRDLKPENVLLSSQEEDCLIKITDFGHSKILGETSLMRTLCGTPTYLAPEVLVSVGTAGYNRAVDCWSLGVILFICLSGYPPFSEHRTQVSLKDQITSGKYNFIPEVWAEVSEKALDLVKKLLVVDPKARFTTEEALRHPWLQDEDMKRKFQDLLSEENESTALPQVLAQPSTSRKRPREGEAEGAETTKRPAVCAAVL
smiles,measurement,setting,value
CC[C@H](C)[C@@H]([C@@H](CC(=O)N1CCC[C@H]1[C@H](OC)[C@@H](C)C(=O)N[C@H](C)[C@@H](O)c1ccccc1)OC)N(C)C(=O)[C@@H](NC(=O)[C@H](C(C)C)N(C)C(=O)OCc1ccc(NC(=O)[C@H](CCCNC(N)=O)NC(=O)[C@@H](NC(=O)CCCCCN2C(=O)CC(SC[C@H](N)C(=O)N[C@@H](CO)C(=O)N[C@@H](CC(N)=O)C(=O)N[C@@H](CC(=O)O)C(=O)N[C@@H](CCCNC(=N)N)C(=O)N3CCC[C@@H]3C(=O)N3CCC[C@@H]3C(=O)N[C@@H](CC(N)=O)C(=O)N[C@H](C(=O)N[C@@H](CC(C)C)C(=O)N[C@@H](CCC(N)=O)C(=O)N[C@@H](CCCCN)C(=O)N[C@@H](CCCNC(=N)N)C(N)=O)[C@@H](C)CC)C2=O)C(C)C)cc1)C(C)C (stereo partly drawn),Activity,[1],24.32%
same,Activity,[2],76.34%
same,Activity,[3],38.15%
same,Activity,[4],19.52%
same,Activity,[5],39.1%
same,Activity,[6],50.55%
same,Activity,[7],54.83%
same,Activity,[8],14.94%
same,Activity,[9],39.22%
same,Activity,[10],37.22%
same,Activity,[11],40%
same,Activity,[12],13.8%
same,Activity,[13],18
same,Activity,[14],45.12%
same,Activity,[15],13.43%
same,Activity,[16],Active
same,Activity,[17],15.25%
same,Activity,[18],Active
